Measured values published in PMC3759464 (PLoS ONE, 2013).
Like-named read-outs stand apart in the source and are kept apart here.

Columns and labels:
[1] = biological target: T1, rH4R (Rattus norvegicus, UniProt Q91ZY1); assay: cell-based; parameters: gene Hrh4; SF-rH4R-His6: cleavable influenza hemagglutinin signal peptide and FLAG, hexahistidine tag; GTPgammaS: Sf9 membranes co-expressing Galphai2 and Gbeta1gamma2; species or system HEK293T; CRE-luciferase reporter gene assay, inhibition of forskolin-stimulated luminescence, agonist mode; conditions: HEK-293T, read-out: rH4R / α
T1 sequence (Q91ZY1 whole entry): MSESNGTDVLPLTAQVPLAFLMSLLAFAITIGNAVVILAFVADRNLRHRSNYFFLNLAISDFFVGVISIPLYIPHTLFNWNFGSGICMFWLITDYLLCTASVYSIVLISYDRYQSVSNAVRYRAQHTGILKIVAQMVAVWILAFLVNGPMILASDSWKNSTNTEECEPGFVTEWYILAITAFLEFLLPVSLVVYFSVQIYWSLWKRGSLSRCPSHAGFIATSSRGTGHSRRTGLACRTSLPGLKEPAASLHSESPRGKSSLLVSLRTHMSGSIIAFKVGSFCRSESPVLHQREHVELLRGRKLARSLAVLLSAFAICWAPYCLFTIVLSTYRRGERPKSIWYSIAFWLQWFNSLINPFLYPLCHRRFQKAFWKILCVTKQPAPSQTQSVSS

[2] = biological target: T2, hH4R (Homo sapiens, UniProt Q9H3N8); assay: cell-based; parameters: gene HRH4
T2 sequence (Q9H3N8 whole entry): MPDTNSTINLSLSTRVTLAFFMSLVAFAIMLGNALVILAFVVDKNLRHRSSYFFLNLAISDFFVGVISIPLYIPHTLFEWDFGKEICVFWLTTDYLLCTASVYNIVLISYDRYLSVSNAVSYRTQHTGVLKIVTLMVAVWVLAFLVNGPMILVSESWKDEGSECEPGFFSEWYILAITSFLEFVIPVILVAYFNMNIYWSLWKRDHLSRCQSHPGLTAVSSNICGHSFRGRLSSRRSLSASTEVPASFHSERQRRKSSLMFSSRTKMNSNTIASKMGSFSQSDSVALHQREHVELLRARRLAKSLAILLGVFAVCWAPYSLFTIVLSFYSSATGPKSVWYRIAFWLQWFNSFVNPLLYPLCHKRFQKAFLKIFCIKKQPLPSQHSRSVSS

[3] = biological target: T3, mH4R (Mus musculus, UniProt Q91ZY2); assay: cell-based; parameters: gene Hrh4; conditions: HEK293T-CRE-Luc stably expressing SF-H4R-His6, read-out: mH4R / α / −0.23±0.03
T3 sequence (Q91ZY2 1-391): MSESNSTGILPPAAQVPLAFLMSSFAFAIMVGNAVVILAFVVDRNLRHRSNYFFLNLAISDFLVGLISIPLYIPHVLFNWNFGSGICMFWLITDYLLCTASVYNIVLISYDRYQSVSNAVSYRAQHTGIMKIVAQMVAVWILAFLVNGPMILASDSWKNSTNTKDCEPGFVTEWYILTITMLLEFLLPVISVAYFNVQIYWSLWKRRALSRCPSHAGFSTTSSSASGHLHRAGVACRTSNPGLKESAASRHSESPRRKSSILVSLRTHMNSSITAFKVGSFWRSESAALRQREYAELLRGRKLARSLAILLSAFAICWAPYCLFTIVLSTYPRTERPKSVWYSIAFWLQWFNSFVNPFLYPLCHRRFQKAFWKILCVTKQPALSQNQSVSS

[4] = biological target: T3, mH4R; assay: CRE-luciferase reporter gene assay, HEK293T; type: cell-based; parameters: gene Hrh4; SF-mH4R-His6: cleavable influenza hemagglutinin signal peptide and FLAG, hexahistidine tag; conditions: for EC50: read-out: mH4R / pEC50 or (pKB) (converted); for mH4R / pEC50 or (pKB): 1 µM forskolin, 5 h, 37 °C, agonist mode
[5] = biological target: T1, rH4R; assay: cell-based; parameters: gene Hrh4
[6] = biological target: T1, rH4R; assay: CRE-luciferase reporter gene assay, HEK293T; type: cell-based; parameters: gene Hrh4; SF-rH4R-His6: cleavable influenza hemagglutinin signal peptide and FLAG, hexahistidine tag; conditions: for EC50: read-out: rH4R / pEC50 or (pKB) (converted); for rH4R / pEC50 or (pKB): 1 µM forskolin, 5 h, 37 °C, agonist mode
[7] = biological target: T2, hH4R; assay: cell-based; parameters: gene HRH4; SF-hH4R-His6: cleavable influenza hemagglutinin signal peptide and FLAG, hexahistidine tag; stably expressed in HEK293T with CRE-luc2P reporter; conditions: HEK293T-CRE-Luc stably expressing SF-H4R-His6, read-out: hH4R / α
[8] = biological target: T3, mH4R; assay: cell-based; parameters: gene Hrh4; SF-mH4R-His6: cleavable influenza hemagglutinin signal peptide and FLAG, hexahistidine tag; GTPgammaS: Sf9 membranes co-expressing Galphai2 and Gbeta1gamma2; species or system HEK293T-CRE-Luc stably expressing SF-H4R-His6
[9] = biological target: T1, rH4R; assay: […]GTPγS binding, Sf9 membranes; type: biochemical; parameters: gene Hrh4; SF-rH4R-His6: cleavable influenza hemagglutinin signal peptide and FLAG, hexahistidine tag; GTPgammaS: Sf9 membranes co-expressing Galphai2 and Gbeta1gamma2; conditions: read-out: rH4R / pEC50 or (pKB) (converted)
[10] = biological target: T1, rH4R; assay: cell-based; parameters: gene Hrh4; conditions: HEK293T-CRE-Luc stably expressing SF-H4R-His6, read-out: rH4R / α
[11] = biological target: T3, mH4R; assay: […]GTPγS binding, Sf9 membranes; type: biochemical; parameters: gene Hrh4; SF-mH4R-His6: cleavable influenza hemagglutinin signal peptide and FLAG, hexahistidine tag; GTPgammaS: Sf9 membranes co-expressing Galphai2 and Gbeta1gamma2; conditions: read-out: mH4R / pEC50 or (pKB) (converted)
[12] = biological target: T1, rH4R; assay: CRE-luciferase reporter gene assay, HEK293T; type: cell-based; parameters: gene Hrh4; SF-rH4R-His6: cleavable influenza hemagglutinin signal peptide and FLAG, hexahistidine tag; conditions: read-out: rH4R / pEC50 or (pKB) (converted)
[13] = biological target: T2, hH4R; assay: cell-based; parameters: gene HRH4; SF-hH4R-His6: cleavable influenza hemagglutinin signal peptide and FLAG, hexahistidine tag; stably expressed in HEK293T with CRE-luc2P reporter; species or system HEK293T; CRE-luciferase reporter gene assay, inhibition of forskolin-stimulated luminescence, agonist mode; conditions: HEK-293T, read-out: hH4R / α
[14] = HEK293T-CRE-Luc stably expressing SF-H4R-His6, read-out: mH4R / α
[15] = HEK293T-CRE-Luc stably expressing SF-H4R-His6, read-out: rH4R / α
[16] = HEK293T-CRE-Luc stably expressing SF-H4R-His6, read-out: hH4R / α / −0.32±0.04 / −0.39±0.03

Structure (SMILES) | EC50 [4] [nM] | EC50 [6] [nM] | Emax [7] [%] | Emax [8, 14] [%] | Emax [5, 15] [%] | further results
S=C(NC1CCCCC1)N1CCC(c2c[nH]cn2)CC1 [compound 20, Thioperamide] | – | – | – | – | – | Emax [1]: -20 ± 2%; Emax ([2]; HEK293T-CRE-Luc stably expressing SF-H4R-His6, read-out: hH4R / α / −0.31±0.06): -32 ± 4%; Emax [3]: -44 ± 2%
c1ccc(COCCCc2c[nH]cn2)cc1 [compound 11, Proxyfan] | 794 | 2140 | 68 ± 2 | 88 ± 4 | – | Emax ([5]; HEK293T-CRE-Luc stably expressing SF-H4R-His6, read-out: rH4R / α / −0.01±0.06): 76 ± 3%
NC(=NCc1ccc(Cl)cc1)SCCCc1cnc[nH]1 [compound 9, Clobenpropit] | 186 | 158 | 97 ± 3 | 55 ± 5 | 37 ± 3 | Kb [9]: 501 nM
Nc1nc2c(c(N3CCNCC3)n1)CCC1=C2[C@H]2CCCC[C@H]2O1 [compound 23, A 987306] | – | – | – | – | – | Emax [1]: -8%; Emax [2, 16]: -62 ± 7%
Nc1nc2c(c(N3CC[C@@H](N)C3)n1)CCCc1ccccc1-2 [compound 22, A 943931] | – | – | – | – | – | Emax [1]: -6%; Emax [2, 16]: -63 ± 7%
C[C@@H](N)Cc1cnc[nH]1 [compound 2, (R)-α-Methylhistamine] | – | – | 103 ± 4 | 98 ± 1 | 96 ± 2 | mH4R / pEC50 or (pKB) [4]: 6.16±0.07; rH4R / pEC50 or (pKB) [6]: 5.60±0.12
CN1CCN(c2cc(NCc3c(Cl)cccc3Cl)nc(N)n2)CC1 [compound 16, ST-1006] | – | – | 91 ± 1 | 37 ± 4 | – | Emax [10]: -55 ± 12%
C[C@H](N)Cc1c[nH]cn1 [compound 3, (S)-α-Methylhistamine] | – | – | 90 ± 4 | 82 ± 7 | 69 ± 3 | mH4R / pEC50 or (pKB) [4]: 4.72±0.16; rH4R / pEC50 or (pKB) [6]: 4.26±0.04
Cc1nc[nH]c1CCN [compound 5, 5(4)-Methylhistamine] | 135 | 933 | 97 ± 3 | 97 ± 2 | 100 ± 3 | –
N=C(N)SCCc1cnc[nH]1 [compound 8, Imetit] | 38.9 | 61.7 | 94 ± 2 | 96 ± 2 | 95 ± 1 | –
N#CNC(=NCCCCc1cnc[nH]1)NCCSc1ccccc1 [UR-PI376 (14)] | – | – | 102 ± 2 | 51 ± 5 | – | Emax [1]: 8 ± 10%
N#C/N=C(/NCCCCc1c[nH]cn1)NCCSc1ccccc1 [compound 14, 2-cyano-1-[4-(1H-imidazol-4-yl)butyl]-3-[(2-phenylthio)ethyl]guanidine] | 245 | – | – | – | – | Kb [11]: 794 nM; Kb [12]: 7080 nM
c1ncc(CCCC2CCNCC2)[nH]1 [compound 18, VUF 5681] | 6310 | – | – | 42 ± 2 | – | Emax [13]: 9%
c1cc(Cc2cnc[nH]2)ccn1 [compound 7, Immethridine] | 1120 | 1580 | 65 ± 2 | 87 ± 2 | 94 ± 1 | –
c1nc(CC2CCNCC2)c[nH]1 [compound 6, Immepip] | 141 | 67.6 | 98 ± 2 | 95 ± 3 | 93 ± 5 | –
CNCCc1cnc[nH]1 [compound 4, N^α-Methylhistamine] | 575 | 589 | 98 ± 3 | 97 ± 2 | 98 ± 4 | –
CN1CCN(C2=Nc3cc(Cl)ccc3Nc3ccccc32)CC1 [compound 17, Clozapine] | – | – | 130 ± 5 | – | – | –
CN1CCN(c2cc(N3Cc4ccccc4C3)nc(N)n2)CC1 [compound 21, ST-1012] | 32.4 | 7.59 | – | – | – | Emax ([2]; HEK293T-CRE-Luc stably expressing SF-H4R-His6, read-out: hH4R / α / −0.31±0.06 / −0.32±0.04): -39 ± 3%; Emax ([5]; HEK293T-CRE-Luc stably expressing SF-H4R-His6, read-out: rH4R / α / −0.20±0.02): 24 ± 7%; Emax ([8]; HEK293T-CRE-Luc stably expressing SF-H4R-His6, read-out: mH4R / α / −0.23±0.03 / −0.44±0.02): 24 ± 5%
NCCc1c[nH]cn1 [compound 1, Histamine] | – | – | 100 | 100 | 100 | –
